Experimental data as given in publication PMC6691587, “New CXCR1/CXCR2 inhibitors represent an effective treatment for kidney or head and neck cancers sensitive or refractory to reference treatments” (Theranostics, 2019).
Like-named read-outs stand apart in the source and are kept apart here.

Assays:
[1] = test system: CAL27; assay: XTT cell viability assay, CAL27 HNSCC cells; assay type: cell-based, human; details: XTT assay, 48 h, SD 10%, mean of three experiments, read-out: IC50 27 (HNSCC)
Experimental: (§1) Fifty microliters of sodium 3′-[1-phenylaminocarbonyl)-3,4-tetrazolium]-bis(4-methoxy-6-nitro) benzene sulfonic acid hydrate (XTT) reagent was added to each well. The assay is based on the cleavage of the yellow tetrazolium salt XTT to form an orange formazan dye by metabolically active cells. This bio-reduction occurs in viable cells only and is related to NAD(P)H production through glycolysis. Therefore, the amount of formazan dye measured at 490 nm directly correlated with the number of metabolically active cells reflecting cell proliferation and viability. Each assay was performed in quadruplicate.

[2] = test system: CAL33; assay: XTT cell viability assay, CAL33 HNSCC cells; assay type: cell-based, human; details: XTT assay, 48 h, SD 10%, mean of three experiments, read-out: IC50 33 (HNSCC)
Experimental: as §1

[3] = test system: A498; assay: XTT cell viability assay, A498 RCC cells; assay type: cell-based, human; details: XTT assay, 48 h, SD 10%, mean of three experiments, read-out: IC50 498 (Kidney RCC)
Experimental: as §1

[4] = test system: RCC4; assay: XTT cell viability assay, RCC4 RCC cells; assay type: cell-based, human; details: SD 10%, mean of three experiments, read-out: IC50 R4 (Kidney RCC)
Experimental: as §1

[5] = test system: 786-O; assay: XTT cell viability assay, 786-O RCC cells; assay type: cell-based, human; details: XTT assay, 48 h, SD 10%, mean of three experiments, read-out: IC50 786 (Kidney RCC)
Experimental: as §1

[6] = test system: MDA-MD-231; assay: XTT cell viability assay, breast cancer cells; assay type: cell-based, human; details: 48 h, SD 10%, mean of three experiments
Experimental: as §1

[7] = test system: OCI-AML2; assay: XTT cell viability assay, OCI-AML2 AML cells; assay type: cell-based, human; details: SD 10%, mean of three experiments, read-out: IC50 L2 (AML)
Experimental: as §1

[8] = test system: OCI-AML3; assay: XTT cell viability assay, OCI-AML3 AML cells; assay type: cell-based, human; details: SD 10%, mean of three experiments, read-out: IC50 L3 (AML)
Experimental: as §1

[9] = test system: Molm13; assay: XTT cell viability assay, Molm13 AML cells; assay type: cell-based, human; details: SD 10%, mean of three experiments
Experimental: as §1

[10] = test system: Molm14; assay: XTT cell viability assay, Molm14 AML cells; assay type: cell-based, human; details: SD 10%, mean of three experiments
Experimental: as §1

[11] = test system: SKM1; assay: XTT cell viability assay, SKM1 MDS cells; assay type: cell-based, human; details: SD 10%, mean of three experiments, read-out: IC50 SK (MDS)
Experimental: as §1

[12] = test system: K562; assay: XTT cell viability assay, K562 CML cells; assay type: cell-based, human; details: SD 10%, mean of three experiments
Experimental: as §1

[13] = test system: panel of human tumor cell lines; assay: XTT screening on a panel of tumor cell lines; assay type: cell-based; details: for anti-proliferation/survival activity on malignant cells: in words; for IC50: Homo sapiens
Experimental: as §1

[14] = test system: HuVEC; assay: Boyden chamber migration assay; assay type: cell-based, human; details: CXCL7 50 ng/ml, 2.5 µmol/L compound
Experimental: CXCL7 or VEGFA-stimulated chemotaxis assays were monitored using modified Boyden chambers containing polycarbonate membranes (8-μm pores, Transwell; Corning, Sigma). Cells were seeded onto the upper side of the filters and chambers were placed on 24-well plates containing CXCL7 (50ng/ml) or VEGFA (50ng/ml). Cell migration was followed for 24 h at 37°C in 5% CO2. Migratory cells on the lower membrane surface were fixed in 3% paraformaldehyde, stained with 0.1% crystal violet.

[15] = test system: 786-O cells; assay: Ectopic model of RCC (786-O xenograft); assay type: in vivo, nude (nu/nu) female mice; details: C29 100 µg i.p. three per week; danirixin 200 µg three times a week; sunitinib 50 mg/kg oral gavage five times a week
Experimental: These studies were carried out in strict accordance with the recommendations in the Guide for the Care and Use of Laboratory Animals. Our experiments were approved by the ''Comité National Institutionnel d'Ethique pour l'Animal de Laboratoire'' (reference: PEA-255 and PEA-277). Cells were injected subcutaneously into the flank of 5-week-old nude (nu/nu) female mice (Janvier). When the tumor reached 100 mm^3, mice were treated. The tumor volume was determined with a caliper (v = L*l2*0.5).
2- Seven million 786-O cells were injected subcutaneously.

[16] = read-out: IC50 values for several cancer cell lines
[17] = read-out: IC50 for solid tumors (breast and kidney)

IC50 ([5]; Homo sapiens, 786-0) | IC50 ([6]; Homo sapiens) | IC50 ([7]; Homo sapiens, OCI-AML2, 48 h) | IC50 ([8]; Homo sapiens, OCI-AML-3, 48 h) | IC50 ([9]; Homo sapiens, MOLM-13, 48 h) | IC50 ([10]; Homo sapiens, MOLM-14, 48 h) | IC50 ([11]; Homo sapiens, SKM-1, 48 h) | IC50 ([12]; Homo sapiens, K562, 48 h) | IC50 [13, 16] | Compound | IC50 ([1]; Homo sapiens, CAL-27) | IC50 ([2]; Homo sapiens, CAL-33) | IC50 ([3]; Homo sapiens, A498) | IC50 ([4]; Homo sapiens, RCC4, 48 h) | further results
5 µM | 8 µM | 10 µM | 10 µM | 5 µM | 10 µM | 10 µM | 7 µM | < 20 µM | O=C(Nc1nc2ccc([N+](=O)[O-])cc2s1)Nc1ccccc1Cl [C28] | 7 µM | 5 µM | 5 µM | 7 µM | 
15 µM | 12 µM | 15 µM | 7 µM | 15 µM | 10 µM | 15 µM | 4 µM | < 20 µM | CCOc1ccc2nc(NC(=O)Nc3ccccc3C)sc2c1 [C30] | 5 µM | 15 µM | 15 µM | > 25 µM | 
20 µM | 20 µM | 20 µM | 22 µM | > 25 µM | 20 µM | > 25 µM | 12 µM | < 20 µM | O=C(Nc1ccc(Cl)cc1)Nc1nc2ccccc2[nH]1 [C16] | 15 µM | 15 µM | 9 µM | 20 µM | 
15 µM | 12 µM | 15 µM | 25 µM | > 25 µM | 15 µM | > 25 µM | 25 µM |  | O=C(Nc1ccc(Cl)cc1)Nc1ccccc1O [C12] | 12 µM | 10 µM | 10 µM | 15 µM | IC50 [13, 17]: 10 to 20 µM
15 µM | > 25 µM | > 25 µM | 10 µM | 15 µM | 10 µM | 25 µM | 25 µM | < 20 µM | Cc1ccc2nc(NC(=O)Nc3ccccc3Cl)sc2c1 [C25] | 5 µM | 10 µM | 15 µM | > 25 µM | 

The next lines start with the compound.

Compound | IC50 ([5]; Homo sapiens, 786-0) | IC50 ([6]; Homo sapiens) | IC50 ([7]; Homo sapiens, OCI-AML2, 48 h) | IC50 ([8]; Homo sapiens, OCI-AML-3, 48 h) | IC50 ([9]; Homo sapiens, MOLM-13, 48 h) | IC50 ([10]; Homo sapiens, MOLM-14, 48 h) | IC50 ([11]; Homo sapiens, SKM-1, 48 h) | IC50 ([12]; Homo sapiens, K562, 48 h) | IC50 [13, 16] | IC50 ([1]; Homo sapiens, CAL-27) | IC50 ([2]; Homo sapiens, CAL-33) | IC50 ([3]; Homo sapiens, A498) | IC50 ([4]; Homo sapiens, RCC4, 48 h) | further results
O=C(Nc1ccc([N+](=O)[O-])cc1O)Nc1ccccc1Br [SB225002, reference compound] |  |  |  |  |  |  |  |  |  |  |  |  |  | IC50 [1]: 100 µM; IC50 [2]: 80 µM; IC50 [3]: 70 µM; IC50 ([4]; 48 h): 100 µM; IC50 [5]: 100 µM; IC50 [6]: 100 µM; IC50 ([7]; 48 h): > 100 µM; IC50 ([8]; 48 h): 90 µM; IC50 ([9]; 48 h, read-out: IC50 13 (AML)): > 100 µM; IC50 ([10]; 48 h, read-out: IC50 14 (AML)): 90 µM; IC50 ([11]; 48 h): > 100 µM; IC50 ([12]; 48 h): > 100 µM; effect on RCC and HNSCC cells ([13]; 786, 786R, CAL27, CAL27R (Figure S7), compared to C29): modest effect
Cc1c(F)cccc1NC(=O)Nc1ccc(Cl)c(S(=O)(=O)[C@H]2CCCNC2)c1O [danirixin, reference compound] |  |  |  |  |  |  |  |  |  |  |  |  |  | CXCL7-dependent migration of HuVECs [14]: no effect; efficacy on tumor growth, 786-O xenograft [15]: equivalent efficacy
O=C(Nc1ccccc1)Nc1nc2ccccc2o1 [C18] | > 25 µM | > 25 µM | > 25 µM | > 25 µM | > 25 µM | > 25 µM | > 25 µM | > 25 µM |  | > 25 µM | > 25 µM | > 25 µM | > 25 µM | anti-proliferation/survival activity on malignant cells [13]: did not give anti-proliferation/survival activity
CCN(CC)CCNC(=O)c1c(C)[nH]c(/C=C2\C(=O)Nc3ccc(F)cc32)c1C [sunitinib] |  |  |  |  |  |  |  |  |  |  |  |  |  | efficacy on tumor growth, 786-O xenograft [15]: equivalent efficacy
S=C(Nc1ccccc1)Nc1nc2ccccc2o1 [C19] | > 25 µM | > 25 µM | > 25 µM | > 25 µM | > 25 µM | > 25 µM | > 25 µM | > 25 µM |  | > 25 µM | > 25 µM | > 25 µM | > 25 µM | anti-proliferation/survival activity on malignant cells [13]: did not give anti-proliferation/survival activity
O=C(Nc1cccc(Cl)c1)Nc1cccc(Cl)c1 [C9] | 15 µM | 15 µM | 20 µM | > 25 µM | > 25 µM | 20 µM | > 25 µM | 10 µM |  | 12 µM | 10 µM | 10 µM | 15 µM | IC50 [13, 17]: 10 to 20 µM
Cc1ccc(NC(=S)Nc2ccccc2)cc1 [C7] | > 25 µM | > 25 µM | > 25 µM | > 25 µM | > 25 µM | > 25 µM | > 25 µM | > 25 µM |  | > 25 µM | > 25 µM | > 25 µM | > 25 µM | 
